Measurements: patent US20110105565A1, “WATER SOLUBLE SMALL MOLECULE INHIBITORS OF THE CYSTIC FIBROSIS TRANSMEMBRANE CONDUCTANCE REGULATOR” (THE REGENTS OF THE UNIVERSITY OF CALIFORNIA, priority 2008, published 2011)
≈ marks a conversion by molar mass, not a printed value. Where “and” joins values, the source holds several entries; their conditions need not be identical. Identical values can stand only once.

Legend:
human wildtype CFTR [1] = biological target: T1, human wildtype CFTR (Homo sapiens, UniProt P13569); test: Fluorescence cell-based assay of CFTR inhibition (YFP iodide influx, FRT cells); parameters: expressed in transfected cells; host or cells: Fisher rat thyroid (FRT) cells; conditions: for CFTR inhibitory activity (in words): structure-activity discussion
[2] = Solubility measurements in saline (PBS, LC/MS); assay type: physicochemical; conditions: for Solubility in saline: Table 3, PBS, DMSO <2%; for solubility in saline / aqueous solubility: values in text, LC/MS
Method: Solubility measurements. A saturated compound solution was prepared by addition of DMSO stock to phosphate buffered saline (final DMSO 2%) followed by sonication for 5 min at 25° C. and shaking at room temperature for 1 h. After centrifugation at 15,000 rpm for 1 h, the supernatant was analyzed by LC/MS with concentration determined from area under the curve, standardized against calibration data. A standard curve for each compound was obtained by plotting area under the curve from chromatograms against inhibitor concentration. The concentration range of the standard solutions was 1-15 μM (for 5) and 1-100 μM (other compounds). In all cases, standard curves prepared were linear with r>0.998.
A saturated drug solution of a compound was prepared by addition of the compound in DMSO to phosphate buffered saline (PBS), followed by sonication for 5 min at 25° C. Final concentration of DMSO was <2%. Each saturated solution was centrifuged and filtered. The saturated supernatant solution was diluted and injected into LC/MS. The concentration was determined from area under the curve using a calibration curve.

FRT cells = test: Cytotoxicity measurements, crystal violet staining of FRT cells; assay type: cell-based, rat; conditions: 48 h; for % Cell viability 20 μM / % Cell viability 50 μM: crystal violet staining
Method: Cytotoxicity measurements. FRT cells in confluent monolayers were incubated with compounds for 2 days. Cells were washed 3 times, fixed (cytofix, 30 min) and stained with crystal violet (100 μl, 0.5%, 10 min) using standard procedures. Excess crystal violet was removed by washing, and dye was extracted with Sorenson's buffer (0.1 M sodium citrate, 50% ethanol, pH 4.2). Crystal violet was quantified by measurement of absorbance at 650 nm. The percentage crystal violet staining was determined from test wells measured 8 times, compared to blanks (wells not containing cells) and vehicle-treated cells.
Cytotoxicity analysis was performed for Tetrazolo-172, Oxo-172, α-Me-172 and Pyridine-NO-172 (Compound 17) and compared with CFTRinh-172 (Table 3). […] Crystal violet staining was reduced for Tetrazolo-172 and α-Me-172 at 50 μM.

human wildtype CFTR [3] = biological target: T1, human wildtype CFTR; test: Short-circuit current measurements, apical chloride current in FRT cells; assay type: cell-based; parameters: expressed in transfected cells; host or cells: FRT (Fisher rat thyroid) cells; conditions: for inhibition of CFTR in short-circuit current analysis (in words): increasing concentration, forskolin-stimulated
MDCK cells [4] = test: MDCK cell cytotoxicity, crystal violet staining; assay type: cell-based, Canine; conditions: 20 μM, 72 h
Method: To test whether inhibition of cyst growth could be related to cytotoxicity, certain compounds were tested for their effects on cell viability, cell proliferation and apoptosis. Crystal violet staining was used to assess compound effects on cytotoxicity (see, e.g., Johnson et al., Clin Cancer Res 11: 6924-6932, 2005). MDCK cells were incubated for 24 h on 96-well plates, and then incubated for 72 h with test compounds at 20 μM. Medium was removed and adherent cells were fixed and stained for 30 min with 0.5% crystal violet in 20% methanol. Plates were washed with distilled water, and the stain was extracted with Sorenson's buffer (0.1 mol/L sodium citrate, pH 4.2, in 50% ethanol) overnight at 4° C., and absorbance measured at 570 nm.

MDCK cells [5] = test: MDCK cell cyst model of polycystic kidney disease; assay type: cell-based, Canine; conditions: 10 μM
From the text: An MDCK cell model of polycystic kidney disease was used to screen CFTR inhibitors of the thiazolidinone and glycine hydrazide classes for reducing cyst formation and expansion. […] Culture of MDCK cells in three-dimensional collagen gels produces a polarized, single-layer, thinned epithelium surrounding a fluid-filled space, apical […] microvilli, a solitary cilium, and apical tight junctions (see, e.g., McAteer et al., Scan Elect Microsc (Pt 3): 1135-1150, 1986; McAteer et al., Scanning Microsc 2: 1739-1763, 1988; and Taide et al., Eur J Clin Invest 26: 506-513, 1996).
Type I MDCK cells (ATCC No. CCL-34) were cultured at 37° C. in a humidified 95% air/5% CO2 atmosphere in a 1:1 mixture of Dulbecco's modified Eagle's medium (DMEM) and Ham's F-12 nutrient medium supplemented with 10% fetal bovine serum (Hyclone), 100 U/mL penicillin and 100 μg/mL streptomycin. To generate cysts, four hundred MDCK cells were suspended in 0.4 ml of ice-cold Minimum Essential Medium containing 2.9 mg/mL collagen (PuRECOL, Inamed Biomaterials, Fremont Calif.), 10 mM HEPES, 27 mM NaHCO3, 100 U/mL penicillin and 100 μg/mL streptomycin (pH 7.4). The cell suspension was plated onto 24-well plates. After gelation, 1.5 mL of MDCK cell medium containing 10 μM forskolin was added to each well and plates were maintained at 37° C. in a 5% CO2 humidified atmosphere.
The compound structures together with their approximate CFTR inhibition potencies (expressed as IC50 values) are provided in FIGS. 3 and 4. Indicated IC50 values for T01-07, T10, T12-14 were reported by Ma et al. (J Clin Invest 110: 1651-1658 (2002)). IC50 values for T08, T11, and T16 were determined by short-circuit analysis performed according to methods described herein. Indicated IC50 values for G01-05, G8-16 were reported by Sonawane et al. (FASEB J. 20: 130-132 (2006); Sonawane et al., Gastroenterology 132:1234-44 (2007)). IC50 values for G06 and G07 were determined by short-circuit current analysis performed according to methods described herein.
Medium containing forskolin and test compounds was changed every 12 h. At day 6, cysts (with diameters >50 μm) and non-cyst cell colonies were counted by phase-contrast light microscopy at 20× magnification (546 nm monochromatic illumination) using a Nikon TE 2000-S inverted microscope. In some experiments, compounds were added to medium in the continued presence of forskolin from day 4 after seeding and the medium containing forskolin and compounds was changed every 12 h for 8 days. Micrographs showing the same cysts in collagen gels (identified by markings on plates) were obtained every 2 days. For determination of cyst growth, cyst diameters were measured using Image J software. At least 10 cysts/well and 3 wells/group were measured for each condition.

[6] = cited references; cited from earlier work
[7] = Table 1, lower parts, given as ranges, read-out: IC50
[8] = Table 2 summary table, given as ranges, read-out: IC50
[9] = Table 3, inhibition potency, read-out: IC50
[10] = values in text, forskolin-stimulated CFTR, read-out: IC50 (short-circuit current)
[11] = Table 1, upper part, CFTR inhibitory activity, given as ranges, read-out: IC50

T1 sequence (P13569 whole entry): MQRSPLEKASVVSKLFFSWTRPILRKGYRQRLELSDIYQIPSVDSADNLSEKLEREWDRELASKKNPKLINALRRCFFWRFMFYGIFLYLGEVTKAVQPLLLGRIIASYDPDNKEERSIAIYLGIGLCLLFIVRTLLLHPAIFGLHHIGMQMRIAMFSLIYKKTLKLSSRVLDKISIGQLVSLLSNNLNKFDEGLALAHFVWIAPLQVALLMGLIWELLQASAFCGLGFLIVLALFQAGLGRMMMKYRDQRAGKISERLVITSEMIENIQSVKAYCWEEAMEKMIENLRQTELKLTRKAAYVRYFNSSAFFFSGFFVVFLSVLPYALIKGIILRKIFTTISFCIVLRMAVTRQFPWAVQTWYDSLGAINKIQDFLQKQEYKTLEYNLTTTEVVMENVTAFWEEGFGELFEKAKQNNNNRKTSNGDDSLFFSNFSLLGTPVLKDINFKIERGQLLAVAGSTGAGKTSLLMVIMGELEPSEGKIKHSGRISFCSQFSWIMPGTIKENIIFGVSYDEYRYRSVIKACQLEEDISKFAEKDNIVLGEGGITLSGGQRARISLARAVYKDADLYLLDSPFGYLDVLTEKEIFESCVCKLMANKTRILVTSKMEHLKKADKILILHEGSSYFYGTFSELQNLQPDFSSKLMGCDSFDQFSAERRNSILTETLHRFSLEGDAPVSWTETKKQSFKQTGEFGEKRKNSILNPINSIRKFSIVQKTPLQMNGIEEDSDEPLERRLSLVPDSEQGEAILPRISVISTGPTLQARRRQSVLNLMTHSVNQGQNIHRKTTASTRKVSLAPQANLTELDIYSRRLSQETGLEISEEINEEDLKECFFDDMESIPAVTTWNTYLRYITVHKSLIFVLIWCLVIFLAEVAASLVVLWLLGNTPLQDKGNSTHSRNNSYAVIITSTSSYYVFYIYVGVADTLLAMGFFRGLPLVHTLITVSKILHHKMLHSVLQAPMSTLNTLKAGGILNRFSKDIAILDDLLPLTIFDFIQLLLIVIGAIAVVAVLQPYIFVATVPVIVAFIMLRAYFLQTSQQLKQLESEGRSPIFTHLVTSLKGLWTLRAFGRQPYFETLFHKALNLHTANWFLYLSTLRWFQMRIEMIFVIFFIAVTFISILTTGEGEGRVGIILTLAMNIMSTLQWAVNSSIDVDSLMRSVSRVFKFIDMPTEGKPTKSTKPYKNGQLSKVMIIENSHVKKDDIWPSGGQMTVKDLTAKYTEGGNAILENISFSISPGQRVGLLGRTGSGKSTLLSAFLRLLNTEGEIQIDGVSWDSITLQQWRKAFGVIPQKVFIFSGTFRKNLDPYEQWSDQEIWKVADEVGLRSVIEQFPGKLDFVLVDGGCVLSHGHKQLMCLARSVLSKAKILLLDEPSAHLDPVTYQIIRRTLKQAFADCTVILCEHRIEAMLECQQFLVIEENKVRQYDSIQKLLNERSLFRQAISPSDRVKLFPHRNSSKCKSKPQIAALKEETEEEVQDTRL

Compound | IC50 (human wildtype CFTR [1]; [7]) | IC50 (human wildtype CFTR [1]; [8]) | increase of solubility in saline/water relative to CFTRinh-172 [2] | Solubility in saline [2] | IC50 (human wildtype CFTR [3]; [9]) | inhibition of CFTR in short-circuit current analysis (in words) (human wildtype CFTR [3]) | reduction of CFTR inhibition potency relative to CFTRinh-172 (human wildtype CFTR [3]; short-circuit current assays) | IC50 (human wildtype CFTR [3]; [10]) | IC50 (human wildtype CFTR [1]; [11]) | solubility in saline / aqueous solubility [2] | CFTR inhibitory activity (in words) (human wildtype CFTR [1]) | water solubility (in words) [2] | IC50 (human wildtype CFTR [1]; Tables 1 and 2, read-out: IC50 (CFTR inhibition)) | % Cell viability 20 μM (FRT cells) | % Cell viability 50 μM (FRT cells; 50 μM) | Crystal violet staining at 50 μM (in words) (FRT cells; 50 μM) | MDCK cell viability (in words) (MDCK cells [4]) | effect on MDCK cyst enlargement/formation (in words) (MDCK cells [5]) | water solubility [6]
O=C(O)c1ccc(/C=C2\SC(=O)N(c3cccc(C(F)(F)F)c3)C2=O)cc1 [Compound 47, (Z)-4-((2,4-dioxo-3-(3-(trifluoromethyl)phenyl)thiazolidin-5-ylidene)methyl)benzoic acid] | 1 to 2 µM | 1 to 2 µM | ~25 fold | 420 µM (≈ 165 µg/mL) | 1.4 ± 0.2 µM | dose dependant inhibition | 3.6 fold | 1 to 2 µM |  |  |  |  |  | 93% | 91% |  |  |  | 
Cc1c(N2C(=O)/C(=C/c3ccc(C(=O)O)cc3)SC2=S)cccc1C(F)(F)F [Compound 18, (Z)-4-((3-(2-methyl-3-(trifluoromethyl)phenyl)-4-oxo-2-thioxothiazolidin-5-ylidene)methyl)benzoic acid] |  | 5 to 10 µM |  |  | 8.2 ± 0.4 µM | dose dependant inhibition |  | 8 µM and 8 to 10 µM | 5 to 10 µM | 259 µM (≈ 110 µg/mL) |  |  |  | 89% | 72% | reduced |  |  | 
O=C(O)c1ccc(NC(=S)C2SC(=S)N(c3cccc(C(F)(F)F)c3)C2=O)cc1O (centres unmarked) [Compound 52, 2-hydroxy-4-(4-oxo-2-thioxo-3-(3-(trifluoromethyl)phenyl)thiazolidine-5-carbothioamido)benzoic acid] | 10 to 20 µM | 10 to 20 µM |  |  |  |  |  |  |  |  | inactive | highly water soluble |  |  |  |  |  |  | 
O=C1/C(=C/c2cc[n+]([O-])cc2)SC(=S)N1c1cccc(C(F)(F)F)c1 [Compound 17, (Z)-4-((4-oxo-2-thioxo-3-(3-(trifluoromethyl)phenyl)thiazolidin-5-ylidene)methyl)pyridine 1-oxide] |  | 5 to 10 µM |  |  | 8.7 ± 0.7 µM | dose dependant inhibition |  | 9 µM and 7 to 9 µM |  | 264 µM (≈ 101 µg/mL) |  |  | 5 to 10 µM |  |  |  |  |  | 

Further lines, with some results ahead:

IC50 (human wildtype CFTR [1]; [7]) | IC50 (human wildtype CFTR [1]; [8]) | increase of solubility in saline/water relative to CFTRinh-172 [2] | Solubility in saline [2] | IC50 (human wildtype CFTR [3]; [9]) | inhibition of CFTR in short-circuit current analysis (in words) (human wildtype CFTR [3]) | reduction of CFTR inhibition potency relative to CFTRinh-172 (human wildtype CFTR [3]; short-circuit current assays) | IC50 (human wildtype CFTR [3]; [10]) | IC50 (human wildtype CFTR [1]; [11]) | solubility in saline / aqueous solubility [2] | CFTR inhibitory activity (in words) (human wildtype CFTR [1]) | water solubility (in words) [2] | IC50 (human wildtype CFTR [1]; Tables 1 and 2, read-out: IC50 (CFTR inhibition)) | Compound | % Cell viability 20 μM (FRT cells) | % Cell viability 50 μM (FRT cells; 50 μM) | Crystal violet staining at 50 μM (in words) (FRT cells; 50 μM) | MDCK cell viability (in words) (MDCK cells [4]) | effect on MDCK cyst enlargement/formation (in words) (MDCK cells [5]) | water solubility [6]
 | 5 to 10 µM |  |  |  |  |  |  | 5 to 10 µM |  | modest inhibition activity |  |  | O=C1/C(=C/c2cc(Br)c(O)c(Br)c2O)SC(=S)N1c1cccc(C(F)(F)F)c1 [Compound 15, (Z)-5-(3,5-dibromo-2,4-dihydroxybenzylidene)-2-thioxo-3-(3-(trifluoromethyl)phenyl) thiazolidin-4-one] |  |  |  | reduced MDCK cell viability |  | 
 | 0.1 to 1 µM |  | 17 µM (≈ 6.96 µg/mL) | 0.38 ± 0.04 µM |  |  | 0.4 µM and 0.25 to 0.5 µM | 0.1 to 1 µM |  |  |  |  | O=C(O)c1ccc(/C=C2\SC(=S)N(c3cccc(C(F)(F)F)c3)C2=O)cc1 [Compound 5, (Z)-4-((4-oxo-2-thioxo-3-(3-(trifluoromethyl)phenyl)thiazolidin-5-ylidene)methyl)benzoic acid, reference compound] | 86% |  |  |  | inhibited cyst formation, but to a lesser extent | less than 17 μM
